In ChEMBL document CHEMBL1123387 (J Med Chem, 1986) one finds Ki data, which are given here for 36 molecules.

For orientation: Ki means the dissociation constant of the complex between target and ligand, obtained from inhibition or displacement. A low value points to a stronger hold on the target.

Molecules are shown by their SMILES. Square brackets hold non-standard residues; d marks the D form. Peptide text beside a SMILES is read from it. * marks the point of attachment. Sta = CC(C)C[C@H](N)[C@@H](O)CC(=O)O; Isovaleryl = CC(C)CC(=O)*; NHIsopentyl = CC(C)CCN*; Boc = CC(C)(C)OC(=O)* Some results are limits rather than exact numbers.

The first assay deals with T1, Cathepsin D (Bos taurus, UniProt P80209).
T1 sequence (P80209 whole entry): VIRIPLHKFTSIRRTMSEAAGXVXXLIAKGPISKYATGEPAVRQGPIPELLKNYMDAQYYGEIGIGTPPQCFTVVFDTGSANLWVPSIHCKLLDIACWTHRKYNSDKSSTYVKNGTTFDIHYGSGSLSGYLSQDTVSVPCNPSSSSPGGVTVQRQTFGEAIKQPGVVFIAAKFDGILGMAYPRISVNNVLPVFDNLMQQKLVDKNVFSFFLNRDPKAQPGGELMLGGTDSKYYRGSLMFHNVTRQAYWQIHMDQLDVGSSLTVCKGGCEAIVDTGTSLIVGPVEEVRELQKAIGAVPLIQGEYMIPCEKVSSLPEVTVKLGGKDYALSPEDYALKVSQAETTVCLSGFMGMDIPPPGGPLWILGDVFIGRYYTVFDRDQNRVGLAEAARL
Description: Inhibition of cathepsin D.
In the case of `CC(C)CCNC(=O)[C@H](C)NC(=O)C[C@H](O)[C@H](CC(C)C)NC(=O)[C@@H](NC(=O)[C@@H](NC(=O)CC(C)C)C(C)C)C(C)C`, the affinity, expressed as Ki, was 3.7 nM.
The same measure, in the same setting: the figure for `CC(C)CCNC(=O)[C@H](C)NC(=O)C[C@H](O)[C@H](CC(C)C)NC(=O)[C@@H](NC(=O)[C@@H](NC(=O)OC(C)(C)C)C(C)C)C(C)C` is 1.1 nM.
On the same count and under the same terms, the figure for `CCC(CC)C(=O)N[C@H](C(=O)N[C@@H](CC(C)C)[C@@H](O)CC(=O)N[C@@H](C)C(=O)NCCC(C)C)C(C)C` is 120 nM.
The same measure, in the same setting: the figure for `CC(C)CCNC(=O)[C@H](C)NC(=O)C[C@H](O)[C@H](CC(C)C)NC(=O)[C@@H](NC(=O)C(C)C)C(C)C` is 590 nM; for `CC(C)CCNC(=O)[C@H](C)NC(=O)C[C@H](O)[C@H](CC(C)C)NC(=O)[C@@H](NC(=O)OC(C)C)C(C)C` it is 620 nM; for `CC(C)CCNC(=O)[C@H](C)NC(=O)C[C@H](O)[C@H](CC(C)C)NC(=O)[C@@H](NC(=O)OC(C)(C)C)C(C)C` it is 2700 nM.
Take `CCC(C)C(=O)N[C@H](C(=O)N[C@@H](CC(C)C)[C@@H](O)CC(=O)N[C@@H](C)C(=O)NCCC(C)C)C(C)C` (stereo partly specified): the inhibition constant (Ki) stood at 230 nM.
`CC(C)CCNC(=O)[C@H](C)NC(=O)C[C@H](O)[C@H](CC(C)C)NC(=O)[C@@H](NC(=O)CC(C)C)C(C)C` gave a Ki of 220 nM.
On the same count and under the same terms, the figure for `CC(C)CCNC(=O)[C@H](C)NC(=O)C[C@H](O)[C@@H](Cc1ccccc1)NC(=O)[C@H](NC(=O)CC(C)C)C(C)C` is 52 nM; for `CC(C)CCNC(=O)[C@H](C)NC(=O)C[C@H](O)[C@H](Cc1ccccc1)NC(=O)[C@H](NC(=O)CC(C)C)C(C)C` it is 1070 nM; for `CC(C)CCNC(=O)[C@H](C)NC(=O)C[C@H](O)[C@@H](Cc1ccccc1)NC(=O)[C@@H](NC(=O)OC(C)(C)C)C(C)C` it is 4860 nM.
As to `CC(C)CCNC(=O)[C@H](C)NC(=O)C[C@@H](O)[C@@H](CC(C)C)NC(=O)[C@@H](NC(=O)[C@@H](NC(=O)OC(C)(C)C)C(C)C)C(C)C`, the affinity, expressed as Ki, was 445 nM.
Molecule `CC(C)CCNC(=O)[C@H](C)NC(=O)C[C@H](O)[C@@H](CC(C)C)NC(=O)[C@@H](NC(=O)[C@@H](NC(=O)CC(C)C)C(C)C)C(C)C` displayed a Ki of more than 100 nM.
`CC(C)CCNC(=O)[C@H](C)NC(=O)C[C@H](O)[C@H](Cc1ccccc1)NC(=O)[C@@H](NC(=O)OC(C)(C)C)C(C)C` displayed a Ki of 370 nM.
Still for that read-out and setting: the figure for `CC(C)CCNC(=O)[C@H](C)NC(=O)C[C@@H](O)[C@@H](CC(C)C)NC(=O)[C@@H](NC(=O)CC(C)C)C(C)C` is 1400 nM; for `CC(C)CCNC(=O)[C@H](C)NC(=O)C[C@H](C)[C@@H](CC(C)C)NC(=O)[C@@H](NC(=O)[C@@H](NC(=O)CC(C)C)C(C)C)C(C)C` it is 214 nM; for `CC(C)CCNC(=O)[C@H](C)NC(=O)C[C@H](C)[C@H](CC(C)C)NC(=O)[C@@H](NC(=O)[C@@H](NC(=O)CC(C)C)C(C)C)C(C)C` it is 400 nM.
Same read-out and setting: the figure for `CC(C)CCNC(=O)[C@H](C)NC(=O)C[C@H](O)[C@@H](CC(C)C)NC(=O)[C@@H](NC(=O)CC(C)C)C(C)C` is 2100 nM.
On the same count and under the same terms, the figure for `CC(C)CCNC(=O)[C@H](C)NC(=O)C[C@H](C)[C@H](Cc1ccccc1)NC(=O)[C@@H](NC(=O)OC(C)(C)C)C(C)C` is 930 nM; for `CC(C)CCNC(=O)[C@H](C)NC(=O)C[C@H](O)[C@@H](Cc1ccccc1)NC(=O)[C@@H](NC(=O)[C@@H](NC(=O)OC(C)(C)C)C(C)C)C(C)C` it is 95 nM; for `CC(C)CCNC(=O)[C@H](C)NC(=O)C[C@H](O)[C@H](Cc1ccccc1)NC(=O)[C@@H](NC(=O)[C@@H](NC(=O)OC(C)(C)C)C(C)C)C(C)C` it is 2.1 nM.
As for `CC(C)CCNC(=O)[C@H](C)NC(=O)C[C@H](O)[C@@H](Cc1ccccc1)NC(=O)[C@@H](NC(=O)[C@@H](NC(=O)CC(C)C)C(C)C)C(C)C`, the Ki is 100 nM. This Ki lies about 48-fold higher than the previous one.
Still for that read-out and setting: the figure for `CC(C)CCNC(=O)[C@H](C)NC(=O)C[C@H](O)[C@H](Cc1ccccc1)NC(=O)[C@@H](NC(=O)[C@@H](NC(=O)CC(C)C)C(C)C)C(C)C` is 1 nM; for `CC(C)CCNC(=O)[C@H](C)NC(=O)CC(=O)[C@H](CC(C)C)NC(=O)[C@@H](NC(=O)[C@@H](NC(=O)CC(C)C)C(C)C)C(C)C` it is 25 nM; for `CC(C)CCNC(=O)[C@H](C)NC(=O)C[C@H](O)[C@H](CC(C)C)NC(=O)[C@@H](NC(=O)C(C)(C)C)C(C)C` it is 110 nM.
Take `COC(=O)[C@H](C)NC(=O)C[C@H](O)[C@H](CC(C)C)NC(=O)[C@@H](NC(=O)CC(C)C)C(C)C`: the inhibitory constant (Ki) was 1800 nM.
Still for that read-out and setting: the figure for `CC(C)CCNC(=O)[C@H](C)NC(=O)C(C(=O)[C@H](CC(C)C)NC(=O)[C@@H](NC(=O)[C@@H](NC(=O)CC(C)C)C(C)C)C(C)C)[S+](C)C` (stereo partly specified) is 107 nM; for `CC(C)CCNC(=O)[C@H](C)NC(=O)C[C@H](O)[C@H](CC(C)C)NC(=O)[C@H](C)NC(=O)[C@H](C)NC(=O)[C@H](Cc1ccccc1)NC(=O)OC(C)(C)C` (Boc-FAA[Sta]A-NHIsopentyl) it is 100 nM.
The same measure, in the same setting: the figure for `COC(=O)[C@H](CC(C)C)NC(=O)[C@@H](NC(=O)[C@H](Cc1ccccc1)NC(=O)C[C@H](O)[C@H](CC(C)C)NC(=O)[C@H](C)NC(=O)[C@H](C)NC(=O)[C@H](Cc1ccccc1)NC(=O)OC(C)(C)C)C(C)C` (Boc-FAA[Sta]FVL-OMe) is 60 nM; for `COC(=O)[C@H](CC(C)C)NC(=O)[C@@H](NC(=O)C[C@H](O)[C@H](CC(C)C)NC(=O)[C@H](C)NC(=O)[C@H](C)NC(=O)[C@H](Cc1ccccc1)NC(=O)OC(C)(C)C)C(C)C` (Boc-FAA[Sta]VL-OMe) it is 12 nM; for `COC(=O)[C@H](CC(C)C)NC(=O)[C@@H](NC(=O)[C@H](Cc1ccccc1)NC(=O)C[C@H](O)[C@H](CC(C)C)NC(=O)[C@H](C)NC(=O)[C@H](Cc1ccccc1)NC(=O)[C@H](Cc1ccccc1)NC(=O)OC(C)(C)C)C(C)C` (Boc-FFA[Sta]FVL-OMe) it is 12 nM.
Still for that read-out and setting: the figure for `COC(=O)[C@H](CC(C)C)NC(=O)[C@@H](NC(=O)[C@H](Cc1ccccc1)NC(=O)C[C@H](O)[C@H](CC(C)C)NC(=O)[C@H](C)NC(=O)[C@H](CC(C)C)NC(=O)[C@H](Cc1ccccc1)NC(=O)OC(C)(C)C)C(C)C` (Boc-FLA[Sta]FVL-OMe) is 5.8 nM.
Turning to `COC(=O)[C@H](C)NC(=O)C[C@H](O)[C@H](CC(C)C)NC(=O)[C@@H](NC(=O)[C@@H](NC(=O)CC(C)C)C(C)C)C(C)C` (Isovaleryl-VV[Sta]A-OMe), affinity was put at a Ki of 90 nM.
In turn, `COC(=O)[C@H](Cc1ccccc1)NC(=O)[C@H](C)NC(=O)C[C@H](O)[C@H](CC(C)C)NC(=O)[C@@H](NC(=O)CC(C)C)C(C)C` (Isovaleryl-V[Sta]AF-OMe) returned a Ki of 23 nM.
`COC(=O)[C@H](CC(C)C)NC(=O)[C@H](C)NC(=O)C[C@H](O)[C@H](CC(C)C)NC(=O)[C@@H](NC(=O)CC(C)C)C(C)C` (Isovaleryl-V[Sta]AL-OMe) came in with an inhibitory constant (Ki) of 43 nM.
The same measure, in the same setting: the figure for `CCOC(=O)C[C@H](O)[C@H](CC(C)C)NC(=O)[C@@H](NC(=O)[C@@H](NC(=O)CC(C)C)C(C)C)C(C)C` (Isovaleryl-Val-Val-[Sta]-OEt) is 180 nM.

In the next assay the target is Pepsin A (Sus scrofa, UniProt P00791). Description: Compound was tested for inhibition of pepsin.
Chain of Pepsin A (P00791 whole entry): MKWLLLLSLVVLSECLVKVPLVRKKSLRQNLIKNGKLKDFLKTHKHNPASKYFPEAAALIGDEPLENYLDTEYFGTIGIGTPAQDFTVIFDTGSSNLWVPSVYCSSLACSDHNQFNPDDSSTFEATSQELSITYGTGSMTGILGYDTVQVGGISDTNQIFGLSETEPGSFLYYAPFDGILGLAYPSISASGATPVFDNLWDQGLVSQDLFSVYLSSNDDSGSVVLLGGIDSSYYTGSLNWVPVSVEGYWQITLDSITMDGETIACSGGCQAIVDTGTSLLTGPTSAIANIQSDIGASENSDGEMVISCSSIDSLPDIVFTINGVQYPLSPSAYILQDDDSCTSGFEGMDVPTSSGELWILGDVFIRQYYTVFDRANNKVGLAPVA
Consider `CC(C)CCNC(=O)[C@H](C)NC(=O)C[C@H](O)[C@H](CC(C)C)NC(=O)[C@H](C)NC(=O)[C@H](C)NC(=O)[C@H](Cc1ccccc1)NC(=O)OC(C)(C)C` (Boc-FAA[Sta]A-NHIsopentyl), for which the Ki worked out at 3.3 nM. This lies in the single-digit nanomolar range.
`COC(=O)[C@H](CC(C)C)NC(=O)[C@@H](NC(=O)[C@H](Cc1ccccc1)NC(=O)C[C@H](O)[C@H](CC(C)C)NC(=O)[C@H](C)NC(=O)[C@H](C)NC(=O)[C@H](Cc1ccccc1)NC(=O)OC(C)(C)C)C(C)C` (Boc-FAA[Sta]FVL-OMe) showed a Ki of 1.7 nM.
With `COC(=O)[C@H](CC(C)C)NC(=O)[C@@H](NC(=O)C[C@H](O)[C@H](CC(C)C)NC(=O)[C@H](C)NC(=O)[C@H](C)NC(=O)[C@H](Cc1ccccc1)NC(=O)OC(C)(C)C)C(C)C` (Boc-FAA[Sta]VL-OMe), the inhibitory constant (Ki) stood at 2.8 nM. This Ki lies about 1.6-fold higher than the previous one.
Still for that read-out and setting: the figure for `COC(=O)[C@H](CC(C)C)NC(=O)[C@@H](NC(=O)[C@H](Cc1ccccc1)NC(=O)C[C@H](O)[C@H](CC(C)C)NC(=O)[C@H](C)NC(=O)[C@H](Cc1ccccc1)NC(=O)[C@H](Cc1ccccc1)NC(=O)OC(C)(C)C)C(C)C` (Boc-FFA[Sta]FVL-OMe) is 24 nM; for `COC(=O)[C@H](CC(C)C)NC(=O)[C@@H](NC(=O)[C@H](Cc1ccccc1)NC(=O)C[C@H](O)[C@H](CC(C)C)NC(=O)[C@H](C)NC(=O)[C@H](CC(C)C)NC(=O)[C@H](Cc1ccccc1)NC(=O)OC(C)(C)C)C(C)C` (Boc-FLA[Sta]FVL-OMe) it is 0.64 nM.
